Measured values from US20050137145A1, “Metabolites of 1-dimethylamino-3-(3-methoxy-phenyl)-2-methyl-pentan-3-ol and their use in the treatment of urinary incontinence” (Gruenenthal GmbH, priority 2002, published 2005).
Marks after values point to notes of the source that are not given here.

Tested on: naive female Sprague-Dawley rats
Experiment: Cystometry test system on the conscious naive rat
Format: in vivo
Conditions: for BC bladder capacity (change relative to the preliminary value) / ICI inter-contraction interval (change relative to the preliminary value) / TP threshold pressure (change relative to the preliminary value): at maximum activity, mean of 3 miction cycles; for effect on bladder regulation (in words): summary of the cystometry results, i.v.
Description: Cystometric investigations were carried out on naive female Sprague-Dawley rats according to the method of Ishizuka et al. ((1997), Naunyn-Schmiedeberg's Arch. Pharmacol. 355: 787-793). Three days after the implantation of bladder and venous catheters, the animals, which were free to move, were studied in the conscious state. The bladder catheter was attached to a pressure transducer and an injection pump. The animals were placed in metabolic cages which allowed the volume of urine to be measured. Physiological saline solution was infused into the emptied bladder (10 ml/h) and the bladder pressure and miction volume were recorded continuously. After a stabilization phase, a 20-minute phase characterised by normal, reproducible miction cycles was recorded. The following parameters, inter alia, were determined: • threshold pressure (TP, bladder pressure immediately before miction), • bladder capacity (BC, residual volume after previous miction plus volume of solution infused during the filling phase), • inter-contraction interval (ICI, the time interval between mictions).
An increase in the threshold pressure (TP) indicates an important therapeutic activity in one of the indications according to the invention. The inter-contraction interval (ICI) is also an important parameter for measuring the physiological effectiveness of a substance in the treatment of urinary incontinence, as is the bladder capacity (BC). Because the causes of the symptoms of these disorders are highly heterogeneous, it is not necessary for all three parameters to be influenced positively in order for effectiveness to exist. It is, therefore, entirely satisfactory for a positive effect to be determined in only one of these parameters in order to be usable in urinary incontinence or increased urinary urgency.
After three reproducible miction cycles had been recorded as the preliminary value, the test substances 1 (1.0 mg/kg), 2 (0.1; 0.3 and 0.5 mg/kg), 21 (0.5 mg/kg) and 7 (0.3 mg/kg) were administered i.v. in the vehicle=0.9% NaCl and the effect on the cystometric parameters was recorded for 90 to 120 minutes. At the maximum activity, the mean of 3 miction cycles was determined and indicated as the percentage change relative to the preliminary value (Table 1).

SMILES | BC bladder capacity (change relative to the preliminary value) (1.0 mg/kg i.v.) | ICI inter-contraction interval (change relative to the preliminary value) (1.0 mg/kg i.v.) | TP threshold pressure (change relative to the preliminary value) (1.0 mg/kg i.v.) | BC bladder capacity (change relative to the preliminary value) (0.3 mg/kg i.v.) | ICI inter-contraction interval (change relative to the preliminary value) (0.3 mg/kg i.v.) | TP threshold pressure (change relative to the preliminary value) (0.3 mg/kg i.v.) | BC bladder capacity (change relative to the preliminary value) (0.1 mg/kg i.v.) | ICI inter-contraction interval (change relative to the preliminary value) (0.1 mg/kg i.v.) | TP threshold pressure (change relative to the preliminary value) (0.1 mg/kg i.v.) | BC bladder capacity (change relative to the preliminary value) (0.5 mg/kg i.v.) | ICI inter-contraction interval (change relative to the preliminary value) (0.5 mg/kg i.v.) | TP threshold pressure (change relative to the preliminary value) (0.5 mg/kg i.v.) | effect on bladder regulation (in words)
CC[C@](O)(c1cccc(OC)c1)[C@H](C)CN(C)C.Cl (racemic) [Compound 1, (2RS,3RS)-1-Dimethylamino-3-(3-methoxy-phenyl)-2-methyl-pentan-3-ol, hydrochloride] | +31%*** | +42% | +94%** |  |  |  |  |  |  |  |  |  | 
CCC(O)(c1cccc(O)c1)C(C)CN(C)C.Cl (racemic) [Compound 7, (2RS,3RS)-3-(3-Dimethylamino-1-ethyl-1-hydroxy-2-methyl-propyl)-phenol, hydrochloride] |  |  |  | +32%* | +28%* | +95%** |  |  |  |  |  |  | 
CC[C@](O)(c1cccc(OC)c1)[C@H](C)CN(C)C.Cl [Compound 2, (+)-(2R,3R)-1-Dimethylamino-3-(3-methoxy-phenyl)-2-methyl-pentan-3-ol, hydrochloride] |  |  |  | +33%* | +28%* | +122%** | +7.8% | +15.6% | +28.5%** | +20.6%* | +28.6%** | +77.5%** | very effective
CC[C@@](O)(c1cccc(OC)c1)[C@@H](C)CN(C)C.Cl [Compound 21, (−)-(2S,3S)-1-Dimethylamino-3-(3-methoxy-phenyl)-2-methyl-pentan-3-ol, hydrochloride] |  |  |  |  |  |  |  |  |  | +3% | +10% | −1.1% | does not make such a strong contribution to the action
